From US9487516B2, “Antibacterial oxadiazolone derivatives” (priority 2013, dated 2016)
Converted amounts (≈) assume the structure as drawn.

How the values were obtained:
Assay in all cases: Bacterial growth minimal inhibitory concentration (microdilution, cation-adjusted Mueller-Hinton Broth)
Format in all cases: cell-based
[1] = system: Staphylococcus aureus A798; settings: multiply-resistant strain (in particular quinolone-resistant), read-out: MIC for S. aureus A798
Procedure: (§1) Minimal Inhibitory Concentrations (MICs; mg/L) were determined in cation-adjusted MuellerHinton Broth by a microdilution method following the description given in “Methods for Dilution Antimicrobial Susceptibility Tests for Bacteria that Grow Aerobically”, Approved standard, 7th ed., Clinical and Laboratory Standards Institute (CLSI) Document M7-A7, Wayne, Pa., USA, 2006.
(§2) All Example compounds were tested against several Gram positive and Gram negative bacteria. […] Staphylococcus aureus A798, Enterococcus faecium A949 and Acinetobacter baumanii T6474 are multiply-resistant strains (in particular quinolone-resistant), while Moraxella catarrhalis A894 is a quinolone-sensitive strain and Staphylococcus aureus ATCC29213 is a methicillin-sensitive and quinolone-sensitive strain.

[2] = system: Acinetobacter baumanii T6474; settings: Acinetobacter baumannii, multiply-resistant strain (in particular quinolone-resistant)
Procedure: as §1, §2

[3] = system: Moraxella catarrhalis A894; settings: quinolone-sensitive strain
Procedure: as §1, §2

[4] = system: Staphylococcus aureus ATCC29213; settings: methicillin-sensitive and quinolone-sensitive strain, read-out: MIC for S. aureus ATCC29213
Procedure: as §1, §2

[5] = system: Enterococcus faecium A949; settings: multiply-resistant strain (in particular quinolone-resistant), read-out: MIC for E. faecium A949
Procedure: as §1, §2

Compound	MIC [1] [mg/L]	MIC [2] [mg/L]	MIC [3] [mg/L]	MIC [4] [mg/L]	MIC [5] [mg/L]
O=c1oc(CCCN[C@@H]2Cn3c(=O)ccc4ccc(F)c2c43)nn1-c1ccc2c(c1)OCCO2 [Example 22, (S)-1-{3-[4-(2,3-dihydro-benzo[1,4]dioxin-6-yl)-5-oxo-4,5-dihydro-[1,3,4]oxadiazol-2-yl]-propylamino}-9-fluoro-1,2-dihydro-pyrrolo[3,2,1-ij]quinolin-4-one]	> 8	8 (≈ 17.2 µM)	4 (≈ 8.61 µM)	4 (≈ 8.61 µM)	> 8
O=C1COc2ccc(-n3nc(CCCN[C@H]4Cn5c(=O)ccc6ncc(F)c4c65)oc3=O)nc2N1 [Example 38, (R)-3-fluoro-4-{3-[5-oxo-4-(3-oxo-3,4-dihydro-2H-pyrido[3,2-b][1,4]oxazin-6-yl)-4,5-dihydro-[1,3,4]oxadiazol-2-yl]-propylamino}-4,5-dihydro-pyrrolo[3,2,1-de][1,5]naphthyridin-7-one]	0.5 (≈ 1.04 µM)	2 (≈ 4.17 µM)	0.5 (≈ 1.04 µM)	0.5 (≈ 1.04 µM)	4 (≈ 8.34 µM)
CCCc1ccc(-n2nc(CCCN[C@H]3Cn4c(=O)ccc5ccc(F)c3c54)oc2=O)cc1 [Example 26, (R)-9-fluoro-1-{3-[5-oxo-4-(4-propyl-phenyl)-4,5-dihydro-[1,3,4]oxadiazol-2-yl]-propylamino}-1,2-dihydro-pyrrolo[3,2,1-ij]quinolin-4-one]	0.5 (≈ 1.11 µM)	2 (≈ 4.46 µM)	0.5 (≈ 1.11 µM)	0.125 (≈ 0.279 µM)	0.5 (≈ 1.11 µM)
